{"source": "paper PMC6213599", "about": "(Marine Drugs, 2018)", "key": {"ACE": {"system": "ACE", "conditions": "cited from earlier work"}, "[1]": {"system": "influenza virus A/Puerto Rico/8/1934 (H1N1) in MDCK cells"}, "[2]": {"system": "pepsin, chymotrypsin, trypsin", "experiment": "Simulated in vitro gastrointestinal digestion, NA inhibition read-out", "assay_type": "in vitro ADME", "conditions": "10 mg/mL, pepsin pH 2.0, 37 °C, 2 h, then chymotrypsin pH 7.5, 37 °C, 1 h, three replicates", "description": "Simulated digestion assay was performed according to the previous method with slight modifications. The NA-inhibitory peptide was dissolved in deionized water to prepare 10 mg/mL solution. The pH was adjusted to 2.0 with 1 mol/L HCl and then pepsin (2.86% of the substrate, dry basis) was added. Digestion was performed at 37 °C for 2 h, followed by boiling for 10 min to stop the enzyme activation. Subsequently, the pH was adjusted to 7.5 with 0.2 mol/L NaOH. After adding chymotrypsin (4.00% of substrate, dry basis), the reaction was carried out at 37 °C for 1 h. The sample was submerged in a 95 °C water bath for 10 min to terminate the enzymatic digestion and cooled on ice to room temperature. Then, trypsin (4.00% of substrate, dry basis) was added, and the above steps were repeated. Afterwards, the digested mixtures were centrifuged at 10,000× g for 10 min to obtain the digestive juices. The NA inhibition assay in digestive juices was detected as described above."}, "[3]": {"molecular_target": "T1, Influenza virus H1N1 neuraminidase (NA) (Influenza A virus, UniProt P03468)", "T1 sequence (P03468 whole entry, looked up)": "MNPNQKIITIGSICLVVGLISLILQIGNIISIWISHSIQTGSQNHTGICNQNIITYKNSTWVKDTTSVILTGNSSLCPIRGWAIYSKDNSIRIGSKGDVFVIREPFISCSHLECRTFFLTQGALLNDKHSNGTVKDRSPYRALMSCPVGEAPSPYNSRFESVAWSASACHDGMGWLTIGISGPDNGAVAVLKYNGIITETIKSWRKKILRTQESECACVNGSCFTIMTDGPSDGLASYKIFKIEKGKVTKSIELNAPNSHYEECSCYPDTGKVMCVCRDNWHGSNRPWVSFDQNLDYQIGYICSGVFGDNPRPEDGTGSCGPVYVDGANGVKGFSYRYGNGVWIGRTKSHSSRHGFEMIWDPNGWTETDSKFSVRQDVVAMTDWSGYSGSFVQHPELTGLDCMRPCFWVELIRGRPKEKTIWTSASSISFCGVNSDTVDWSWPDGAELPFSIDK", "assay_type": "biochemical", "conditions": "relative to hydrolysates (<5000 Da), from the IC50 values"}, "[4]": {"molecular_target": "T1, Influenza virus H1N1 neuraminidase (NA)", "experiment": "NA inhibition mode, Lineweaver–Burk kinetics", "assay_type": "biochemical", "conditions": "Lineweaver–Burk plot", "description": "The mode of NA inhibition was determined according to the previous method with slight modifications. Various concentrations of MUNANA (1.25, 2.5, 5, 10 and 20 μM) were incubated with NA in the absence or presence (0–2.5 mg/mL) of the peptide P at 37 °C. The inhibition kinetics of NA in the presence of peptide P was determined based on the Lineweaver–Burk plot. The inhibitor constant Ki was calculated by plotting 1/Vmax versus the concentrations of peptide P."}, "[5]": {"system": "influenza virus H1N1 (HA titer, chicken red blood cells)", "design": "species or system influenza A H1N1 virus"}, "MDCK cells": {"system": "MDCK cells", "experiment": "Cytotoxicity test by MTT assay", "assay_type": "cell-based, canine", "conditions": "48 h", "description": "The MTT assay was used to determine the effect of the peptide on the viability of MDCK cells. The 96-well plates were used to culture the MDCK cells. After adding 10 μL of PBS containing MTT (0.5 mg/mL) into each well, the solution was incubated at 37 °C for 4 h. After removing the supernatant, 200 μL of DMSO was added into each well. The optical density (OD) for each well was determined at 570 nm. The IC50 was calculated as the concentration of the sample at which the number of viable cells was decreased to 50% of that in the cell control."}, "[6]": {"system": "influenza virus A/Puerto Rico/8/1934 (H1N1) in MDCK cells", "remark": "listed apart in the source"}, "NA [7]": {"system": "NA", "conditions": "cited from earlier work", "from_the_text": "(§1) To determine the mode of action of the NA-inhibitory peptide, a Lineweaver–Burk kinetic model was used to explore the relationship between the reaction rate and the substrate concentration."}, "NA [8]": {"system": "NA", "conditions": "no reference given; cited from earlier work", "from_the_text": "as §1"}, "[9]": {"conditions": "influenza virus A/Puerto Rico/8/1934 in MDCK cells, 1 h, 250 μg/mL"}}, "note": "Like-named read-outs stand apart in the source and are kept apart here. Non-standard residues stand in square brackets, D forms with d. Residues, ends and D or L forms follow the SMILES beside them. Hyp = O=C(O)[C@@H]1C[C@@H](O)CN1"}
{"compound": "Trp-Leu", "values": [{"measurement": "ACE inhibitory activity after simulated digestion", "setting": "ACE", "value": "completely preserved"}]}
{"compound": "NC(=O)c1ncn([C@@H]2O[C@H](CO)[C@@H](O)[C@H]2O)n1", "note": "[ribavirin, Ribavirin, reference compound]", "values": [{"measurement": "Inhibition ratio, positive control", "setting": "[1]; positive control in the time-of-addition experiment", "value": 75, "unit": "%"}]}
{"compound": "CC(C)C[C@H](NC(=O)CNC(=O)[C@H](CCC(N)=O)NC(=O)[C@@H]1CCCN1C(=O)CNC(=O)[C@@H]1C[C@@H](O)CN1C(=O)[C@@H](NC(=O)CNC(=O)[C@@H]1C[C@@H](O)CN1C(=O)[C@@H]1CCCN1C(=O)CNC(=O)[C@H](C)NC(=O)[C@@H](NC(=O)CNC(=O)[C@H](C)NC(=O)[C@H](CCC(=O)O)NC(=O)CNC(=O)[C@H](CO)NC(=O)[C@@H]1CCCN1C(=O)CNC(=O)[C@H](CCCCN)NC(=O)[C@H](CCC(=O)O)NC(=O)CNC(=O)[C@@H]1C[C@@H](O)CN1)[C@@H](C)O)[C@@H](C)O)C(=O)O", "note": "[peptide P] (H-[Hyp]GEKGPSGEAGTAGP[Hyp]GT[Hyp]GPQGL-OH; N-terminus and C-terminus assumed)", "values": [{"measurement": "NA-inhibitory activity after simulated in vitro gastrointestinal digestion", "setting": "[2]", "value": "significantly decreased"}, {"measurement": "NA-inhibitory activity after simulated in vitro gastrointestinal digestion", "setting": "[2]; listed as NA-inhibitory peptide", "value": "almost inactivated"}, {"measurement": "Purification Fold", "setting": "[3]", "value": 7.19}, {"measurement": "Mode of NA inhibition", "setting": "[4]", "value": "competitive"}, {"measurement": "Inhibition rate, added after the infection (after-adsorption)", "setting": "[1]", "value": "approximately 31.5%"}, {"measurement": "Inhibition ratio, during viral adsorption", "setting": "[1]; [9]", "value": 58, "unit": "%"}, {"measurement": "Inhibition ratio, pretreatment (added before viral adsorption)", "setting": "[1]; [9]", "value": 73, "unit": "%"}, {"measurement": "HA titer of the virus", "setting": "[5]", "value": "significantly reduce the virus titer"}, {"measurement": "Cytotoxicity in MDCK cells", "setting": "MDCK cells; concentration of 250 μg/mL or less (p > 0.05)", "value": "no significant cytotoxicity"}, {"measurement": "Viability of MDCK cells", "setting": "MDCK cells; concentrations over 250 μg/mL (p < 0.05)", "value": "significantly reduced the viability"}, {"measurement": "Effect on cytopathic effect (CPE)", "setting": "[6]", "value": "significantly reduced the cytopathic effect"}, {"measurement": "EC50 against H1N1", "setting": "[6]; influenza virus A/Puerto Rico/8/1934 in MDCK cells, 48 h", "value": "471 ± 12", "unit": "µg/mL"}, {"measurement": "Inhibition of H1N1", "setting": "[6]; influenza virus A/Puerto Rico/8/1934 in MDCK cells, 48 h, 250 μg/mL", "value": 42, "unit": "%"}]}
{"compound": "2-hydroxy-3-methyl-3-butenyl alkyl [HMB]", "values": [{"measurement": "Mode of NA inhibition", "setting": "NA [7]", "value": "non-competitive"}, {"measurement": "IC50", "setting": "NA [7]; read-out: IC50 for NA", "value": 12.3, "unit": "µM"}, {"measurement": "Ki", "setting": "NA [7]; read-out: Ki for NA", "value": "14 ± 1.5", "unit": "µM"}]}
{"compound": "CCOC(=O)C1=C[C@@H](OC(CC)CC)[C@H](NC(C)=O)[C@@H](N)C1", "note": "[oseltamivir]", "values": [{"measurement": "Mode of NA inhibition", "setting": "NA [8]", "value": "competitive"}]}
